In patent publication US20140249135A1, “PIM KINASE INHIBITORS AND METHODS OF THEIR USE” (NOVARTIS AG, priority 2007, published 2014) one finds IC50 data, which are given here for 24 compounds.

What all share (type): biochemical
One experiment addresses Pim3 kinase (Homo sapiens, UniProt Q86V86). Briefly: Pim3 ATP depletion assay. The following applies: read-out: IC50 (μM) PIM3.
The target in a further experiment is Pim2 kinase (Homo sapiens, UniProt Q9P1W9). Description: Pim2 ATP depletion assay.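 Also: Luciferase-based luminescent readout of ATP remaining after PIM2 phosphorylates a BAD peptide, final 5 nM enzyme, 4 µM ATP, 10 µM peptide, 2.5% DMSO, run to roughly half ATP consumption.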 The conditions noted are these: read-out: IC50 (μM) PIM2.
A further experiment has as its target Pim1 kinase (Homo sapiens, UniProt P11309). Briefly: Pim1 ATP depletion assay.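 Also: Luciferase-luciferin luminescence readout of residual ATP after PIM1 transfers phosphate to a peptide substrate, 40 µM ATP added, reaction run to roughly half ATP consumption.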
Setting [1] is: Pim1 ATP depletion assay, read-out: IC50 (μM) PIM1.

Where two headings read alike, the source gives them in different places.

In general, IC50 refers to the concentration needed to halve the response being measured.

Pim2 kinase, sequence (Q9P1W9 whole entry): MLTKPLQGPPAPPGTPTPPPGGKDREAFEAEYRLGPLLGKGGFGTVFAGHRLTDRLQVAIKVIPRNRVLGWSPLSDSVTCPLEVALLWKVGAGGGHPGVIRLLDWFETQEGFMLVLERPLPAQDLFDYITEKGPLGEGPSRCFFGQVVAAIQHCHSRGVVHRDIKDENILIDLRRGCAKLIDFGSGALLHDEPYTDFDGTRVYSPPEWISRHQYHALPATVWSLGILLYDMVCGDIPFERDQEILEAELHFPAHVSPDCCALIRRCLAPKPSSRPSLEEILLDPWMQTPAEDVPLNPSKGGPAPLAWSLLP
Pim1 kinase, sequence (P11309 whole entry): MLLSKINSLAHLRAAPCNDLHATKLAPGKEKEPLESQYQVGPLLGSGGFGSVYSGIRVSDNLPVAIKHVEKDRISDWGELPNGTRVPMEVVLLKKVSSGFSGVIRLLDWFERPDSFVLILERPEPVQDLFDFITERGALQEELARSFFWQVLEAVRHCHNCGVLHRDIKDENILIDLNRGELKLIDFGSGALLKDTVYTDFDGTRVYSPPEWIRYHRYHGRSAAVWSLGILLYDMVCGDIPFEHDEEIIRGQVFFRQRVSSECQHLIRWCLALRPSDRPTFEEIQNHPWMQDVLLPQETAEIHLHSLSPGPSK

With `Nc1ccc(-c2c(F)cccc2F)nc1C(=O)Nc1cnccc1N1CC(N)CC(C(F)(F)F)C1` (stereo not drawn) [Example 282, 3-Amino-6-(2,6-difluoro-phenyl)-pyridine-2-carboxylic acid (3-amino-5-trifluoromethyl-3,4,5,6-tetrahydro-2H-[1,4′]bi-pyridinyl-3′-yl)-amide], the IC50 at Pim3 kinase, at Pim2 kinase and on Pim1 kinase (setting [1]) was less than 1 µM throughout.

Turning to `CC1CC(N)CN(c2ccncc2NC(=O)c2nc(C3CCCCC3)ccc2N)C1` (stereo not drawn) [Example 283, 3-Amino-6-cyclohexyl-pyridine-2-carboxylic acid (3-amino-5-methyl-3,4,5,6-tetrahydro-2H-[1,4′]bipyridinyl-3′-yl)-amide], the IC50 on Pim3 kinase, on Pim2 kinase and on Pim1 kinase (setting [1]) was less than 1 µM in each case.

On to `Nc1ccc(C2CCCCC2)nc1C(=O)Nc1cnccc1N1C[C@@H](N)C[C@@H](F)C1` [Example 284, 3-Amino-6-cyclohexyl-pyridine-2-carboxylic acid (3-amino-5-fluoro-3,4,5,6-tetrahydro-2H-[1,4′]bipyridinyl-3′-yl)-amide], for which the IC50 on Pim3 kinase, on Pim2 kinase and at Pim1 kinase (setting [1]) was less than 1 µM throughout.

Take `CO[C@@H]1C[C@H](N)CN(c2ccncc2NC(=O)c2nc(C3CCCCC3)ccc2N)C1` [Example 285, 3-Amino-6-cyclohexyl-pyridine-2-carboxylic acid (3-amino-5-methoxy-3,4,5,6-tetrahydro-2H-[1,4′]bipyridinyl-3′-yl)-amide]: the IC50 at Pim3 kinase, on Pim2 kinase and at Pim1 kinase (setting [1]) was less than 1 µM throughout.

Take `CC1CC(N)CN(c2ccncc2NC(=O)c2nc(-c3ccccc3F)ccc2F)C1` (stereo not drawn) [Example 286, 3-Fluoro-6-(2-fluoro-phenyl)-pyridine-2-carboxylic acid (5-amino-3-methyl-3,4,5,6-tetra-hydro-2H-[1,4′]bipyridinyl-3′-yl)-amide]: the IC50 on Pim3 kinase, at Pim2 kinase and on Pim1 kinase (setting [1]) was less than 1 µM in each case.

Take `CC1CC(N)CN(c2ccncc2NC(=O)c2nc(-c3c(F)cccc3F)ccc2N)C1` (stereo not drawn) [Example 288, 3-Amino-6-(2,6-difluoro-phenyl)-pyridine-2-carboxylic acid (3-amino-5-methyl-3,4,5,6-tetrahydro-2H-[1,4′]bipyridinyl-3′-yl)-amide]: the IC50 on Pim3 kinase, at Pim2 kinase and at Pim1 kinase (setting [1]) was less than 1 µM throughout.

As to `NC1CC(CO)CN(c2ccncc2NC(=O)c2ccc(F)c(-c3ccccc3F)n2)C1` (stereo not drawn) [Example 289, 5-Fluoro-6-(2-fluoro-phenyl)-pyridine-2-carboxylic acid (5-amino-3-hydroxymethyl-3,4,5,6-tetrahydro-2H-[1,4′]bipyridinyl-3′-yl)-amide], the IC50 at Pim3 kinase, at Pim2 kinase and on Pim1 kinase (setting [1]) was less than 1 µM each time.

As for `CC(C)NC(=O)c1ccc(F)c(-c2ccc(N)c(C(=O)Nc3cnccc3N3CCCC4(CCNC4)C3)n2)c1` (stereo not drawn) [Example 291, 3-Amino-6-(2-fluoro-5-isopropylcarbamoyl-phenyl)-pyridine-2-carboxylic acid [4-(2,7-diaza-spiro[4.5]dec-7-yl)-pyridin-3-yl]-amide], the IC50 at Pim3 kinase, on Pim2 kinase and on Pim1 kinase (setting [1]) was less than 1 µM in each case.

In the case of `Nc1ccc(-c2c(F)cccc2F)nc1C(=O)Nc1cnccc1N1C[C@@H](N)C[C@@H](F)C1` [Example 293, 3-Amino-6-(2,6-difluoro-phenyl)-pyridine-2-carboxylic acid (3-amino-5-fluoro-3,4,5,6-tetrahydro-2H-[1,4′]bipyridinyl-3′-yl)-amide], the IC50 at Pim3 kinase, at Pim2 kinase and on Pim1 kinase (setting [1]) was less than 1 µM in each case.

For `Nc1ccc(-c2c(F)cccc2F)nc1C(=O)Nc1cnccc1N1C[C@@H](N)C[C@H](OC(=O)c2ccccc2)C1` [Example 295, Benzoic acid 5-amino-3′-{[3-amino-6-(2,6-difluoro-phenyl)-pyridine-2-carbonyl]-amino}-3,4,5,6-tetrahydro-2H-[1,4′]bi-pyridinyl-3-yl ester], the IC50 on Pim3 kinase is less than 1 µM; on Pim2 kinase, 1 to 10 µM; at Pim1 kinase (setting [1]), less than 1 µM.

Turning to `CC(C)NC(=O)c1ccc(F)c(-c2ccc(N)c(C(=O)Nc3cnccc3N3C[C@@H](N)C[C@H](O)C3)n2)c1` [Example 296, 3-Amino-6-(2-fluoro-5-isopropylcarbamoyl-phenyl)-pyridine-2-carboxylic acid (3-amino-5-hydroxy-3,4,5,6-tetra-hydro-2H-[1,4′]bipyridinyl-3′-yl)-amide], the IC50 at Pim3 kinase, at Pim2 kinase and at Pim1 kinase (setting [1]) was less than 1 µM each time.

As for `Nc1ccc(-c2c(F)cccc2F)nc1C(=O)Nc1cnccc1N1C[C@@H](N)C[C@H](O)C1` [Example 297, 3-Amino-6-(2,6-difluoro-phenyl)-pyridine-2-carboxylic acid (3-amino-5-hydroxy-3,4,5,6-tetrahydro-2H-[1,4′]bipyridinyl-3′-yl)-amide], the IC50 at Pim3 kinase, on Pim2 kinase and on Pim1 kinase (setting [1]) was less than 1 µM in each case.

With `COC1CCN(c2ccncc2NC(=O)c2nc(-c3cc(C(=O)NC(C)C)ccc3F)ccc2N)CC1N` (stereo not drawn) [Example 299, 3-Amino-6-(2-fluoro-5-isopropylcarbamoyl-phenyl)-pyridine-2-carboxylic acid (3-amino-4-methoxy-3,4,5,6-tetra-hydro-2H-[1,4′]bipyridinyl-3′-yl)-amide], the IC50 on Pim3 kinase, at Pim2 kinase and at Pim1 kinase (setting [1]) was less than 1 µM each time.

In the case of `COC1CCN(c2ccncc2NC(=O)c2nc(-c3c(F)cccc3F)ccc2N)CC1N` (stereo not drawn) [Example 301, 3-Amino-6-(2,6-difluoro-phenyl)-pyridine-2-carboxylic acid (3-amino-4-methoxy-3,4,5,6-tetrahydro-2H-[1,4′]bi-pyridinyl-3′-yl)-amide], the IC50 at Pim3 kinase, on Pim2 kinase and at Pim1 kinase (setting [1]) was less than 1 µM each time.

On to `Nc1ccc(-c2c(F)cccc2F)nc1C(=O)Nc1cnccc1N1CC[C@H]2OC(=O)N[C@H]2C1` [Example 302, 3-Amino-6-(2,6-difluoro-phenyl)-pyridine-2-carboxylic acid [4-(2-oxo-hexahydro-oxazolo[4,5-c]pyridin-5-yl)-pyridin-3-yl]-amide], for which the IC50 at Pim3 kinase, at Pim2 kinase and on Pim1 kinase (setting [1]) was less than 1 µM throughout.

For the compound `Nc1ccc(-c2c(F)cccc2F)nc1C(=O)Nc1cnccc1N1CC[C@@H]2OC(=O)N[C@@H]2C1` [Example 303, 3-Amino-6-(2,6-difluoro-phenyl)-pyridine-2-carboxylic acid [4-(2-oxo-hexahydro-oxazolo[4,5-c]pyridin-5-yl)-pyridin-3-yl]-amide], the IC50 at Pim3 kinase, on Pim2 kinase and on Pim1 kinase (setting [1]) was less than 1 µM throughout.

In the case of `Cc1ccc(S(=O)(=O)N2CCCCC2)cc1-c1ccc(N)c(C(=O)Nc2cnccc2N2CCC[C@H](N)C2)n1` [Example 318, 3-amino-6-[2-methyl-5-(piperidine-1-sulfonyl)-phenyl]-pyridine-2-carboxylic acid ((S)-3-amino-3,4,5,6-tetrahydro-2H-[1,4′]bi-pyridinyl-3′-yl)-amide], the IC50 on Pim3 kinase, on Pim2 kinase and on Pim1 kinase (setting [1]) was less than 1 µM throughout.

Consider `Nc1ccc(-c2ccccc2C(F)(F)F)nc1C(=O)Nc1cnccc1N1CCC[C@H](N)C1` [Example 336], for which the IC50 on Pim3 kinase, on Pim2 kinase and on Pim1 kinase was less than 1 µM each time.

Regarding `Cc1ccccc1-c1ccc(N)c(C(=O)Nc2cnccc2N2CCC[C@H](N)C2)n1` [Example 338, 3-amino-6-o-tolyl-pyridine-2-carboxylic acid ((S)-3-amino-3,4,5,6-tetrahydro-2H-[1,4′]bi-pyridinyl-3′-yl)-amide], the concentration for half-maximal inhibition (IC50) at Pim3 kinase, at Pim2 kinase and on Pim1 kinase (setting [1]) was less than 1 µM each time.

Turning to `Nc1ncc(-c2cccc(C(=O)N3CCOCC3)c2)nc1C(=O)Nc1ccccc1N1CCNCC1` [Example 398, 3-amino-6-[3-(morpholine-4-carbonyl)-phenyl]-pyrazine-2-carboxylic acid (2-piperazin-1-yl-phenyl)-amide], the IC50 at Pim3 kinase lay in the range of 1 to 10 µM; at Pim2 kinase, 10 to 25 µM; at Pim1 kinase (setting [1]), 1 to 10 µM.

As for `Nc1ccc(-c2cncnc2)nc1C(=O)Nc1cnccc1N1CCC[C@H](N)C1` [Example 407, 3-amino-6-pyrimidin-5-yl-pyridine-2-carboxylic acid ((S)-3-amino-3,4,5,6-tetrahydro-2H-[1,4′]bipyridinyl-3′-yl)-amide], the IC50 at Pim3 kinase, at Pim2 kinase and at Pim1 kinase (setting [1]) was less than 1 µM each time.

As to `Nc1ccc(-c2ccc(F)nc2N)nc1C(=O)Nc1cnccc1N1CCC[C@H](N)C1` [Example 408, 5,2′-diamino-6′-fluoro-[2,3′]bi-pyridinyl-6-carboxylic acid ((S)-3-amino-3,4,5,6-tetrahydro-2H-[1,4′]bipyridinyl-3′-yl)-amide], the IC50 on Pim3 kinase, on Pim2 kinase and at Pim1 kinase (setting [1]) was less than 1 µM each time.

As to `Cc1nc(N)ncc1-c1ccc(N)c(C(=O)Nc2cnccc2N2CCC[C@H](N)C2)n1` [Example 409, 3-amino-6-(2-amino-4-methyl-pyrimidin-5-yl)-pyridine-2-carboxylic acid ((S)-3-amino-3,4,5,6-tetrahydro-2H-[1,4′]bi-pyridinyl-3′-yl)-amide], the IC50 on Pim3 kinase, at Pim2 kinase and on Pim1 kinase (setting [1]) was less than 1 µM in each case.

Turning to `COc1cc(-c2ccc(N)c(C(=O)Nc3cnccc3N3CCC[C@H](N)C3)n2)cnc1N` [Example 416, 5,6′-diamino-5′-methoxy-[2,3′]bi-pyridinyl-6-carboxylic acid ((S)-3-amino-3,4,5,6-tetrahydro-2H-[1,4′]bipyridinyl-3′-yl)-amide], the 50% inhibitory concentration (IC50) on Pim3 kinase, at Pim2 kinase and on Pim1 kinase (setting [1]) was less than 1 µM in each case.
